From patent US12048734B2, “Bioactive peptides and methods of use thereof” (OP-T LLC, priority 2020, dated 2024)

Columns and labels:
[1] = 8-week GLP repeat-dose toxicity study, 30-minute IV infusion, rats; assay type: in vivo
Experimental: Due to these adverse effects in the rats and dogs after a bolus IV injection, the administration of OPT101 was changed to IV infusion over 30 minutes for the definitive GLP toxicity studies. Rats and dogs were treated once a week for 8-weeks, by 30-minute IV infusions. The PK of OPT101 was also determined following the first and last dose in each study. […] The no observable adverse effect level (NOAEL) for OPT101 was considered to be the […] level. […] Due to the incidence and severity of the infusion reactions, the clinical signs were considered adverse at 100 and 400 mg/kg, but because of the lower incidence and severity at 10 mg/kg, the effects at the 10 mg/kg were considered non-adverse.

[2] = Preliminary toxicity study, single IV bolus, beagle dogs; assay type: in vivo
Experimental: (§1) In a preliminary toxicity study rats and dogs were given a single dose of OPT 101 as an IV bolus. […] When OPT101 was administered to beagle dogs at 50 or 100 mg/kg by bolus IV injection OPT101 was not tolerated due to adverse clinical signs, including prostration, slight salivation, decreased activities, purple or red skin colored in the abdomen ventral, lateral ears or conjunctiva(s), lips, or periorbital, soft stool, medium food-like, red/brown, or small and frothy vomitus, increased respiratory rate, and labored breathing. Clinical pathology effects included increases in leukocyte count, erythrocyte and platelet counts.

[3] = Single bolus IV dose histamine / immune mediator study in rats
[4] = Character of infusion reactions in the animal studies; assay type: in vivo
Excerpt: There was clear difference between the infusion reactions seen in the rats and dogs, and IgE-mediated anaphylaxis or other antigen-dependent hypersensitivity. IgE/antigen-dependent degranulation of mast cells is associated with a sustained release of larger and more heterogeneously shaped granule structures, whereas peptide-activated mast cells rapidly secrete small and relatively spherical granule structures (Gaudenzio 2016). […] In addition, the infusion reactions were also elicited by a scrambled version of OPT101 (same amino acids but in a different sequence), showing the reaction was not OPT101-dependent.

human platelets = experiment: Human platelet aggregation in vitro by light transmission aggregometry; assay type: cell-based
Excerpt: It has been shown that using an anti-CD154 monoclonal therapeutic approach to interfere with the CD40-CD154 interaction there was efficacy in animal models, but in the clinical trial of one of the monoclonal antibodies there was binding to platelets resulting in emboli. Therefore, the clinical trials were halted (Kawai et al 2000, abstract). To determine if OPT101 has similar effects as the monoclonal antibody, an in vitro study was done with human platelets to determine if OPT101 would affect platelet aggregation, as measured by light transmission aggregometry. Platelet aggregation induced with adenosine diphosphate or collagen were not affected when treated with OPT101 at 0.1, 0.3, 3 or 30 μg/mL. […] Therefore, OPT101 had no impact on human platelet aggregation in vitro.

[5] = 8-week GLP repeat-dose toxicity study, 30-minute IV infusion, dogs; assay type: in vivo
Experimental: Rats and dogs were treated once a week for 8-weeks, by 30-minute IV infusions. The PK of OPT101 was also determined following the first and last dose in each study.

[6] = Single dose dog study focused on cardiovascular effects, 30-minute IV infusion; assay type: in vivo, dogs
Experimental: Since some of the clinical signs were consistent with a drop in blood pressure, a single dose dog study was done, giving doses of 0.3, 1 or 100 mg/kg by a 30-minute IV infusion, and focused on cardiovascular effects. […] The 100 mg/kg group had much more severe clinical observations compared to 1 mg/kg. These effects were associated with decreases in blood pressure and heart rate for the dogs treated with 100 mg/kg. The blood pressure and heart rate returned to normal by 1 hour after end of infusion.

[7] = Preliminary toxicity study, single IV bolus, rats; assay type: in vivo; conditions: 50 or 100 mg/kg bolus IV injection
Experimental: as §1

bacterial mutation = experiment: Standard reverse bacterial mutation assay (Ames assay)
Excerpt: OPT101 was negative in the standard reverse bacterial mutation assay (Ames assay).

[8] = NDA 022150; cited from earlier work
[9] = Glucose tolerance and insulin sensitivity after KGYY6; assay type: in vivo, ApoE −/−mice
Th40 cells = experiment: Intracellular TGF in Th40 cells from ApoE−/− mice treated with KGYY6; conditions: ApoE−/− mice with cardiovascular disease treated with KGYY6 vs not treated; ex-vivo flow cytometry
Experimental: Th40 cells were purified from ApoE−/−mice with cardiovascular disease as well as from ApoE−/−mice that were treated with KGYY6. Immediately ex-vivo, the cells were stained for CD3, CD4, and CD40 and intracellular TGF and analyzed by flow cytometry. Cells were gated on CD3 then CD4 and CD40 for Th40 cells then levels of TGF were assessed.

conventional CD4 T cells = experiment: Intracellular IL-10 in conventional CD4 T cells ex-vivo at end of EAE experiment after KGYY6 treatment; design: species or system mice; conditions: draining lymph nodes (dLN); after 33 days; vs untreated animals; p=0.0145
Excerpt: FIG. 10 provides two graphs which show how KGYY-6 treatment alters IL-10 production by conventional CD4 T cells.
Intracellular cytokine expression profiles were examined in conventional CD4 T cells immediately ex-vivo at the end of the EAE experiment, after 33 days.

[10] = test system: CD3+CD4+CD40+(Th40) splenic cells; experiment: Overnight culture of Th40 splenic cells with KGYY6, inflammatory cytokines; assay type: cell-based, ApoE−/− mice; conditions: cultured overnight with varying concentrations of KGYY6; vs untreated cells
Experimental: CD3+CD4+CD40+(Th40) splenic cells were purified from ApoE−/− with cardiovascular disease. The cells were cultured overnight in the absence/presence of varying concentrations of KGYY6 peptide.

[11] = 50 and 100 mg/kg IV injection, vs pretest values
[12] = 12.5 mg/kg bolus IV, 1-hour post-treatment

Compound: CSCC[C@H](NC(=O)[C@@H](NC(=O)[C@H](Cc1ccc(O)cc1)NC(=O)[C@H](Cc1ccc(O)cc1)NC(=O)CNC(=O)[C@H](CCCCN)NC(=O)[C@H](CCCCN)NC(=O)[C@H](C)NC(=O)[C@H](Cc1c[nH]c2ccccc12)NC(=O)[C@H](CCC(N)=O)NC(=O)[C@H](CC(C)C)NC(=O)[C@@H](N)C(C)C)[C@@H](C)O)C(=O)N[C@@H](CCCCN)C(=O)N[C@@H](CO)C(=O)N[C@@H](CC(N)=O)C(=O)O [OPT101, VLQWAKKGYYTMKSN]
- tolerability ([1]; 10, 100 or 200 mg/kg/dose once a week for 8 weeks, 30-minute IV infusion): well tolerated and did not result in any adverse effects
- NOAEL ([1]; rat, in vivo, rats, once weekly for 8 weeks, 30-minute IV infusion, read-out: no observable adverse effect level (NOAEL)): 200 mg/kg
- thromboemboli ([1]; rats, 8-week toxicology study): no evidence of thromboemboli
- toxicity other than infusion reaction ([1]; rats, up to highest dose of 200 mg/kg, once weekly for 8 weeks, 200 mg/kg): no other adverse effects
- assessment of clinical chemistry effects ([2]; 100 mg/kg): adverse
- alanine aminotransferase, aspartate aminotransferase, alkaline phosphatase, γ-glutamyltransferase, urea, creatinine, calcium, phosphorus, total bilirubin, creatine kinase [2, 11]: notable increases
- potassium [2, 11]: decrease
- serum C5b-9 complement levels ([2]; 50 or 100 mg/kg): no increases
- decrease of fibrinogen (down to) ([2]; 50 or 100 mg/kg bolus IV): 32%
- increase of prothrombin time ([2]; 50 or 100 mg/kg bolus IV): 288%
- leukocyte count, erythrocyte and platelet counts ([2]; 50 or 100 mg/kg bolus IV): increases
- tolerability ([2]; 50 or 100 mg/kg bolus IV injection, single dose): not tolerated
- histopathology evaluation of liver and kidney ([2]; bolus IV): no liver or kidney lesions
- serum C3 levels (as measured by conversion to human SC5b-9) [3, 12]: no decreases
- serum IFN-γ, TNF-α, IL-10, IL-4, IL-5, IL-6, IL-10, or IL-13 levels [3, 12]: no changes
- serum histamine levels ([3]; 12.5 mg/kg bolus IV, 10-minutes post-treatment): increased significantly
- clinical observation ([3]; single bolus IV dose 12.5 mg/kg): consistent with a histamine reaction
- complement activation [4]: no evidence of complement activation
- duration of clinical signs and release of histamine [4]: very transient
- spontaneous platelet aggregation (human platelets; OPT101 at 30 μg/mL): no spontaneous platelet aggregation
- Platelet aggregation induced with adenosine diphosphate or collagen (human platelets; OPT101 at 0.1, 0.3, 3 or 30 μg/mL): not affected
- assessment of infusion reaction clinical signs ([5]; 10 mg/kg): non-adverse
- plasma drug levels versus dose ([5]; 8-week study, PK after first and last dose): increased with increasing dose
- infusion reactions, incidence ([5]; 10, 100, or 400 mg/kg/dose): in all treated animals
- tolerability ([5]; 10, 100, or 400 mg/kg/dose once a week for 8 weeks, 30-minute IV infusion): well tolerated
- assessment of infusion reaction clinical signs ([5]; 100 and 400 mg/kg): adverse
- NOAEL ([5]; dog, in vivo, dogs, infusion reaction, once weekly for 8 weeks, 30-minute IV infusion, read-out: no observable adverse effect level (NOAEL)): 10 mg/kg
- thromboemboli ([5]; dogs, 8-week toxicology study): no evidence of thromboemboli
- toxicity other than infusion reaction ([5]; dogs, up to highest dose of 400 mg/kg, once weekly for 8 weeks, 400 mg/kg): no other adverse effects
- drug accumulation ([5]; over the 8-week study): no marked drug accumulation
- clinical observations or physiological changes ([6]; 0.3 mg/kg): no clinical observations or physiological changes
- blood pressure and heart rate ([6]; 100 mg/kg): decreases
- time for blood pressure and heart rate to return to normal after end of infusion ([6]; 100 mg/kg): ≤ 1 h
- serum levels of histamine ([6]; 100 mg/kg, 5 and 30 minutes after start of infusion): significantly elevated
- body weight, food consumption, body temperature, respiratory rate and coagulation ([6]; 0.3, 1 or 100 mg/kg, 30-minute IV infusion, single dose): no OPT101-related body weight, food consumption, body temperature, respiratory rate and coagulation changes
- histamine related clinical observations ([6]; 1 and 100 mg/kg, much more severe at 100 mg/kg): salivation, vomitus, incontinence, discolored skin, swelling and rash
- no observable effect level (NOEL) ([6]; single dose, 30-minute IV infusion): 0.3 mg/kg
- mortality [7]: mortality of two rats
- tolerability ([7]; single dose): did not tolerate the treatment
- reverse bacterial mutation (Ames assay) (bacterial mutation): negative

Compound: NC(N)=NCCC[C@@H](N)C(=O)N[C@@H](CCCN=C(N)N)C(=O)N1CCC[C@H]1C(=O)N1C[C@H](O)C[C@H]1C(=O)NCC(=O)N[C@@H](Cc1cccs1)C(=O)N[C@@H](CO)C(=O)N1Cc2ccccc2C[C@@H]1C(=O)N1[C@H](C(=O)N[C@@H](CCCN=C(N)N)C(=O)O)C[C@@H]2CCCC[C@@H]21 [icatibant]
- infusion reaction [8]: causes a reaction due to histamine release that is quickly reversed after end of infusion

Compound: AKKGYY [KGYY6]
- insulin sensitivity ([9]; p<0.005): statistically significant improvement
- glucose tolerance ([9]; p<0.05): statistically significant improvement
- production of TGF (intracellular, Th40 cells) (Th40 cells): decrease production of TGF
- intracellular IL-10 in conventional CD4 T cells (conventional CD4 T cells): increase in intracellular IL-10
- inflammatory cytokine IFNγ [10]: varying degrees of reduction
- inflammatory cytokine IL-2 [10]: varying degrees of reduction
- inflammatory cytokine IL-17A [10]: varying degrees of reduction

Compound: YKNVKQMAYWLTGKS [scrambled version of OPT101, reference compound]
- infusion reactions [4]: also elicited
